Results taken from a melting point compilation (Tetko et al.; mined from patent text by program, amines drawn as free bases though some values may be those of a salt).

| melting point [°C] | Structure (SMILES) |
| --- | --- |
| 222 to 224 | N#Cc1cc(Br)cc2ccc(O)cc12 |
| 162 to 163 | O=C(NN1CCc2ccccc2C1)Oc1ccc2c(c1)CN(Nc1ccncc1)C2 |
| 230 | CC(Cl)C(=O)c1ccc2c(c1)CCCC(=O)N2 (centres undefined) |
| 129 to 132 | COc1c(C(=O)O)cc(Cl)c2c1CCCN2 |
| 126 to 131 | COc1ccc([C@H]2CCc3ccccc3[C@@H]2C#N)cc1 (racemic) |
| 120 to 122 | CC(=O)c1ccc(O)c(CCCc2ccccc2)c1O |
| 147 to 150 | COC(=O)c1ccc(N)cn1 |
| 240 | CC(NC(=O)c1cc2ccccc2[nH]1)C(=O)O (racemic) |
| 123 to 124 | COc1ccc(C2=NN(c3ccc(Br)cc3)C(=O)C(C)(C)C2)cc1OC |
| 257 to 259 | Nc1cc(C(c2ccc([N+](=O)[O-])c(N)c2)(C(F)(F)F)C(F)(F)F)ccc1[N+](=O)[O-] |
| 196 to 198 | O=C(Nc1ccc(C(F)(F)F)cc1)Nc1cccc(S(=O)(=O)Nc2ccc(Cl)cc2)c1 |
| 130 to 134 | COc1ccc2oc(C(=O)c3cccnc3F)cc2c1 |
| 112 to 113 | NCCCc1cn(C(c2ccccc2)(c2ccccc2)c2ccccc2)cn1 |
| 188 to 189 | CCOc1ccc2ccccc2c1C(=O)NC(Cc1ccc(C(F)(F)F)cc1)C(=O)c1ccc(F)cc1 (centres undefined) |
| 133 to 135 | N#Cc1cc(Cl)cc(Oc2ccc(CC(=O)Nc3ccc(CS(N)(=O)=O)cc3)cc2Br)c1 |
| 108 to 112 | Cc1cccc(-c2[nH]c(C(C)C)nc2-c2cccc(-c3cccc(NS(C)(=O)=O)c3)c2)n1 |
| 214 to 217 | O=C(O)C1=Cc2cc(Cl)c(S(=O)c3ccc(Cl)cc3)cc2OC1C(F)(F)F (centres undefined) |
| 187 to 188 | COC(=O)c1ccc(C(F)(F)F)nc1S(N)(=O)=O |
| 164 to 166 | CCC(CC)(CC(=O)Nc1ccc2ccc(OCc3ccc4ccc(F)cc4n3)cc2c1)C(=O)O |
| 129 to 130 | CC(C)c1cc(C(=O)Nc2ccc(C(=O)O)c(O)c2)sc1C(C)C |
| 155 to 156 | Cc1oc(-c2ccccc2)nc1COc1ccc([N+](=O)[O-])cc1F |
| 65 to 68 | CCCc1cc(=O)oc2cc(OC(=O)C(C)(C)C)c3c(c12)OC(C)(C)C=C3 |

| melting point [°C] | Structure (SMILES) |
| --- | --- |
| 164 to 166 | O=C(CSc1c(O)cc(-c2ccccc2)oc1=O)c1ccccc1 |
| 159 to 160 | O=[N+]([O-])c1cnccc1N1CCc2ccccc21 |
| 209 to 210 | Nc1cccc(Oc2ccc3c(c2)OCC(=O)N3)c1 |
| 99 to 101 | COc1cc2c(cc1O)CCN(Cc1cccc(NS(C)(=O)=O)c1)C2 |
| 203 to 205 | COC(=O)Nc1cc(Oc2ccc3c(C(=O)Nc4ccc(CN5CCN(C)CC5)c(C(F)(F)F)c4)nccc3c2)ncn1 |
| 158 to 162 | CC(=O)OC1CSC(Oc2cnc(Cl)c(F)c2)C(OC(C)=O)C1OC(C)=O (centres undefined) |
| 62 to 62.5 | CCOC(=O)C(OCc1ccc(-c2ccc(Cl)cc2)cc1)(C(F)(F)F)C(F)(F)F |
| 201 to 203 | COC(=O)c1c2cc(I)ccc2nc2ccc(I)cc12 |
| 191 to 192 | O=C(O)/C=C/c1cc(OC2CCOCC2)nn1Cc1ccc(Cl)cc1Cl |
| 108 to 112 | CC1(C)[C@@H](CN2CCCC2)CC[C@@]1(C)NCC(=O)N1C[C@@H](F)C[C@H]1C#N |
| 124 | CCCC(=O)NN=C(C)c1sc(C)nc1C |
| 120 | CCCCCCCCC=CCCCCCCCCn1c(=O)[nH][nH]c1=O |
| 264 | O=C1c2cccc(O)c2C(=O)c2sc(-c3ccccc3)nc21 |
| 156 to 159 | CCOC(=O)c1ccc(NC(=O)C=C(c2ccc(OC)cc2)c2ccc(OC)cc2)cc1 |
| 116 to 117 | Cc1oc(-c2ccccc2)nc1CCc1ccc(CCCCCC2OC(=O)NC2=O)cc1 (centres undefined) |
| 83 to 85 | CN(C)CCCN1N=C2C(=Cc3ccccc3)CSCC2C1c1ccccc1 (centres undefined) |
| 79 to 82 | Cc1ccc(N2C=NC3CCCCC3C2=O)cc1 (centres undefined) |
| 202 to 204 | O=C(NN=Cc1cccnc1)NN=Cc1cccnc1 |
| 130 to 132 | Cc1cc(C)c(C)c(COc2cccc(-c3c(-c4ccccc4)coc3C(=O)NNC(=O)c3ccc(O)c([N+](=O)[O-])c3)c2)c1C |
| 243 to 248 | N#Cc1nc(-c2ccc(=O)[nH]c2)c(-c2ccccc2)nc1N |
| 302 to 304 | CC(=O)Nc1nc2c(Oc3cc(-c4ccc(C(F)(F)F)cc4O)ncn3)cccc2s1 |
| 137 to 138 | CCC(O)(c1cccc(C(F)(F)F)c1)c1ccc(O)cc1O (centres undefined) |

| melting point [°C] | Structure (SMILES) |
| --- | --- |
| 124 to 126 | CC(C)(C)OC(=O)Nc1ccc(CN2OCC(C)(C)C2=O)c(Cl)c1 |
| 188 to 190 | Cc1cccc(-c2sc(N)nc2-c2ccc3ncoc3c2)n1 |
| 196 to 198 | CCCn1nc2c(N)nc3ccccc3c2c1CCCc1cc(-c2cccnc2)on1 |
| 33 to 35 | CCCCCCCCCCCNC(=O)N(CC)CC |
| 89 to 91 | CC(=O)c1ccc(-c2ccc(Br)cc2)c(F)c1 |
| 218 to 220 | CN1CC[C@@H](c2c(O)cc(O)c3c(=O)cc(-c4cccs4)oc23)[C@@H]1CO |
| 155 | CC(C)(Oc1cccc2ccccc12)C(=O)Nc1ccc(C(=O)O)cc1 |
| 114 to 115 | CC(C#N)(c1ccccc1)c1cccnn1 (centres undefined) |
| 190 | O=C1c2ccccc2C(O)N1CCCN1CCN(c2ccc(O)cc2)CC1 (centres undefined) |
| 105 | CS(=O)(=O)NCC(=O)N[C@@H]1CN2C(=O)N(c3cc(Cl)nc(Cl)c3)C(=O)[C@@]2(Cc2ccc(OC(F)(F)F)cc2)C1 |
| 280 | O=C(NN=Cc1ccc(C(F)(F)F)c([N+](=O)[O-])c1)c1ccc(O)cc1 |
| 109 to 110 | Cc1ccc2nc(SCCN(C(C)C)C(C)C)[nH]c2c1 |
| 207 to 209 | CC(C)(C)OC(=O)N(CCc1ccc(C(F)(F)F)cc1)C1CCN(C[C@@]2(C)Cn3cc([N+](=O)[O-])nc3O2)CC1 |
| 149 to 150 | O=C(NCCO)c1cccc(-c2ccc3c(c2)N(Cc2cc(Cl)ccc2Cl)CC3)c1 |
| 151 to 153 | Cn1c(OCC(CO)CO)nc2c(NC(=O)c3ccccc3)ncnc21 |
| 169 to 171 | CS(=O)(=O)c1ccc(-n2cc(-c3ccc(Cl)cc3)nc2-c2ccc(Cl)cc2)cc1 |
| 166 to 168 | CCCCCCn1c(=O)[nH]c2ncccc2c1=O |
| 146 to 148 | CC1=C(C(=O)OCCCO[N+](=O)[O-])C(c2cccc([N+](=O)[O-])c2)C(C(=O)OCCNC(=O)c2ccccn2)=C(C)N1 (centres undefined) |
| 222 to 223 | CC(C)c1cc(C(=O)Nc2ccc(C(=O)O)c(Cl)c2)sc1C(C)C |
| 219 | COc1ccc2c(c1)c(Cc1nc(-c3ccc([N+](=O)[O-])cc3)cs1)c(C)n2C(=O)c1ccc(Cl)cc1 |
| 238 to 240 | CN(C)C(=O)Cc1ccc2c(c1)sc1nc(=O)cc(-c3ccccc3)n12 |

| Structure (SMILES) | melting point [°C] |
| --- | --- |
| NC(=O)O[C@@](c1cc(F)cc(Cl)c1)(c1cc2cn[nH]c2cc1F)[C@@H]1CCCCN1 | 220 |
| Brc1cnn2ccc(N3CCNCC3)nc12 | 108 to 109 |
| NNC(=C[N+](=O)[O-])NCc1ccc(Cl)nc1 | 188 to 190 |
| CNC(=S)N1CCC23C=C[C@H](O)CC2Oc2c(OC)cc(Br)c(c23)C1 (some centres undefined) | 183 to 185 |
